Measurements as given in patent US8192962B2, “Processes for detecting toxic substances” (Daikin Industries, Ltd., priority 2001, dated 2012).

Test system: Transport facilitation protein genes
Test: DNA chip mRNA expression in yeast, transport facilitation protein genes (Table 5)
Assay type: cell-based, Saccharomyces cerevisiae S288C
Protocol: Yeast (Saccharomyces cerevisiae S288C (α SUC2mal mel gap2 CUP1)) were incubated at 25° C. on YPD medium (yeast extract 1%, polypepton 2%, glucose 2%). One of toxic chemical substances was added to the cells at logarithmic growth phase, and the cells were further incubated for two hours. Cells were cultured without any chemical substance in the same condition, and were used as control. Concentrations of the chemical substances were defined to inhibit the growth of the yeast but not lead to death.
After completion of the incubation, the culture was centrifuged to collect the cells. To the cells, sodium acetate buffer (50 mM sodium acetate, 10 mM EDTA, 1% SDS) was added, and the mixture was shaken at 65° C. for five minutes, followed by returning to room temperature, and obtaining the supernatant, of which the procedures were repeated two times. To the supernatant, ½ amount of a solution of phenol/chloroform was added, and the mixture was centrifuged to give a supernatant, which was added with an equal amount of chloroform, and the mixture was centrifuged to give a supernatant. To the supernatant, an equal amount of isopropanol containing 0.3 M sodium acetate was added, and the mixture was allowed to stand at room temperature for 30 minutes, after which the mixture was centrifuged to give a sediment of the whole RNAs. Seventy % ethanol was added to the sediment, and the mixture was again centrifuged to give a sediment, which was then dried and dissolved in water. mRNA was isolated from the whole RNAs as followings. In view of the fact that a poly A chain is attached to the 3′ terminus of mRNA, a polynucleotide having a poly T structure which was immobilized on the surface of latex beads was used to trap the mRNA, and then the mRNA was washed and eluted with spine column (Oligotex-dT30<Super>mRNA Purification Kit, Takara). Reverse transcription of the mRNA was conducted with a reverse transcriptase (Super Script II Reverse Transcriptase; catalogue No. 18064-014, GibcoBRL) using fluorescence-labeled nucleotides to give cDNAs that were introduced with Cy3-dUTP or Cy5-dUTP during the reverse transcription.
The labeled cDNAs were dissolved in TE buffer (10mM Tris-HCl/1 mM EDTA, pH8.0), and the solution was dropped on the DNA chip containing the whole genes of yeast (DNA Chip Research Inc. Japan) so that the cDNAs were hybridized on the DNA chip at 65° C. for over 12 hours. The fluoresces intensity of the DNA chip was read with a scanner, and the ratio relative to the fluorescence intensity resulting from the absence of chemical substance was estimated as the following, which is shown in Tables 1 to 9: […]

Compound: [Cl][Cd][Cl] [(2), CdCl2]
- The level of expressed mRNA in the presence of chemical substance/The level of expressed mRNA in the absence of chemical substance (yeast gene YBL030C): 0.9
- The level of expressed mRNA in the presence of chemical substance/The level of expressed mRNA in the absence of chemical substance (yeast gene YBL099W): 0.9
- The level of expressed mRNA in the presence of chemical substance/The level of expressed mRNA in the absence of chemical substance (yeast gene YBR052C): 1.6
- The level of expressed mRNA in the presence of chemical substance/The level of expressed mRNA in the absence of chemical substance (yeast gene YBR068C): 1.0
- The level of expressed mRNA in the presence of chemical substance/The level of expressed mRNA in the absence of chemical substance (yeast gene YBR127C): 0.7
- The level of expressed mRNA in the presence of chemical substance/The level of expressed mRNA in the absence of chemical substance (yeast gene YBR132C): 1.9
- The level of expressed mRNA in the presence of chemical substance/The level of expressed mRNA in the absence of chemical substance (yeast gene YBR207W): 1.7
- The level of expressed mRNA in the presence of chemical substance/The level of expressed mRNA in the absence of chemical substance (yeast gene YBR293W): 3.1
- The level of expressed mRNA in the presence of chemical substance/The level of expressed mRNA in the absence of chemical substance (yeast gene YBR294W): 14.4
- The level of expressed mRNA in the presence of chemical substance/The level of expressed mRNA in the absence of chemical substance (yeast gene YBR295W): 1.5
- The level of expressed mRNA in the presence of chemical substance/The level of expressed mRNA in the absence of chemical substance (yeast gene YBR298C): 1.0
- The level of expressed mRNA in the presence of chemical substance/The level of expressed mRNA in the absence of chemical substance (yeast gene YCL025C): 4.6
- The level of expressed mRNA in the presence of chemical substance/The level of expressed mRNA in the absence of chemical substance (yeast gene YCL038C): 1.6
- The level of expressed mRNA in the presence of chemical substance/The level of expressed mRNA in the absence of chemical substance (yeast gene YCR024C-A): 0.9
- The level of expressed mRNA in the presence of chemical substance/The level of expressed mRNA in the absence of chemical substance (yeast gene YCR037C): 1.0
- The level of expressed mRNA in the presence of chemical substance/The level of expressed mRNA in the absence of chemical substance (yeast gene YCR098C): 3.0
- The level of expressed mRNA in the presence of chemical substance/The level of expressed mRNA in the absence of chemical substance (yeast gene YDL128W): 1.1
- The level of expressed mRNA in the presence of chemical substance/The level of expressed mRNA in the absence of chemical substance (yeast gene YDL198C): 1.0
- The level of expressed mRNA in the presence of chemical substance/The level of expressed mRNA in the absence of chemical substance (yeast gene YDL210W): 2.2
- The level of expressed mRNA in the presence of chemical substance/The level of expressed mRNA in the absence of chemical substance (yeast gene YDL245C): 2.4
- The level of expressed mRNA in the presence of chemical substance/The level of expressed mRNA in the absence of chemical substance (yeast gene YDR038C): 1.3
- The level of expressed mRNA in the presence of chemical substance/The level of expressed mRNA in the absence of chemical substance (yeast gene YDR039C): 1.6
- The level of expressed mRNA in the presence of chemical substance/The level of expressed mRNA in the absence of chemical substance (yeast gene YDR086C): 1.0
- The level of expressed mRNA in the presence of chemical substance/The level of expressed mRNA in the absence of chemical substance (yeast gene YDR270W): 1.5
- The level of expressed mRNA in the presence of chemical substance/The level of expressed mRNA in the absence of chemical substance (yeast gene YDR298C): 1.2
- The level of expressed mRNA in the presence of chemical substance/The level of expressed mRNA in the absence of chemical substance (yeast gene YDR342C): 1.1
- The level of expressed mRNA in the presence of chemical substance/The level of expressed mRNA in the absence of chemical substance (yeast gene YDR343C): 1.0
- The level of expressed mRNA in the presence of chemical substance/The level of expressed mRNA in the absence of chemical substance (yeast gene YDR345C): 0.9
- The level of expressed mRNA in the presence of chemical substance/The level of expressed mRNA in the absence of chemical substance (yeast gene YDR387C): 0.9
- The level of expressed mRNA in the presence of chemical substance/The level of expressed mRNA in the absence of chemical substance (yeast gene YDR497C): 0.5
- The level of expressed mRNA in the presence of chemical substance/The level of expressed mRNA in the absence of chemical substance (yeast gene YEL027W): 0.6
- The level of expressed mRNA in the presence of chemical substance/The level of expressed mRNA in the absence of chemical substance (yeast gene YEL063C): 0.8
- The level of expressed mRNA in the presence of chemical substance/The level of expressed mRNA in the absence of chemical substance (yeast gene YEL065W): 3.8
- The level of expressed mRNA in the presence of chemical substance/The level of expressed mRNA in the absence of chemical substance (yeast gene YER053C): 1.8
- The level of expressed mRNA in the presence of chemical substance/The level of expressed mRNA in the absence of chemical substance (yeast gene YFL011W): 0.7
- The level of expressed mRNA in the presence of chemical substance/The level of expressed mRNA in the absence of chemical substance (yeast gene YFL041W): 1.6
- The level of expressed mRNA in the presence of chemical substance/The level of expressed mRNA in the absence of chemical substance (yeast gene YFL050C): 1.0
- The level of expressed mRNA in the presence of chemical substance/The level of expressed mRNA in the absence of chemical substance (yeast gene YFL054C): 1.1
- The level of expressed mRNA in the presence of chemical substance/The level of expressed mRNA in the absence of chemical substance (yeast gene YGL006W): 1.3
- The level of expressed mRNA in the presence of chemical substance/The level of expressed mRNA in the absence of chemical substance (yeast gene YGL008C): 0.7
- The level of expressed mRNA in the presence of chemical substance/The level of expressed mRNA in the absence of chemical substance (yeast gene YGL104C): 2.0
- The level of expressed mRNA in the presence of chemical substance/The level of expressed mRNA in the absence of chemical substance (yeast gene YGL167C): 0.7
- The level of expressed mRNA in the presence of chemical substance/The level of expressed mRNA in the absence of chemical substance (yeast gene YGL255W): 0.9
- The level of expressed mRNA in the presence of chemical substance/The level of expressed mRNA in the absence of chemical substance (yeast gene YGR055W): 5.7
- The level of expressed mRNA in the presence of chemical substance/The level of expressed mRNA in the absence of chemical substance (yeast gene YGR065C): 1.5
- The level of expressed mRNA in the presence of chemical substance/The level of expressed mRNA in the absence of chemical substance (yeast gene YGR082W): 0.9
- The level of expressed mRNA in the presence of chemical substance/The level of expressed mRNA in the absence of chemical substance (yeast gene YGR096W): 1.0
- The level of expressed mRNA in the presence of chemical substance/The level of expressed mRNA in the absence of chemical substance (yeast gene YGR138C): 1.6
- The level of expressed mRNA in the presence of chemical substance/The level of expressed mRNA in the absence of chemical substance (yeast gene YGR191W): 0.7
- The level of expressed mRNA in the presence of chemical substance/The level of expressed mRNA in the absence of chemical substance (yeast gene YGR197C): 2.4
